Entries after “also recorded” stand apart in the source; their conditions may differ.

Test [1] can be described thus: Specific binding of ^3H-PGG-Glucan to sphingolipids in the 96-well plate assay. The arrangement: ^3H-PGG-Glucan bound (specific binding): unit not given here. The settings on record: for ^3H-PGG-Glucan bound (specific binding): LacCer of defined fatty acid and long chain base, 96-well plate; for 3H-PGG-Glucan Bound (specific binding): sphingolipid immobilized in 96-well plate, 37° C.; for specific binding to ^3H-underivatized, aqueous soluble β(1-3)-glucan (in words): immobilized on a polystyrene 96-well plate. On the procedure:
Lactosyl ceramide or the sample to be measured was suspended in ethanol. Aliquots as specified were added in triplicate to the wells of a 96-well plate and air dried. The following components were premixed, then 100 μL was added to each well: saline (10 μL) or unlabelled, underivatized, aqueous soluble β(1-3)-glucan (10 μL of a 10 mg/ml stock), ^3H-underivatized, aqueous soluble β(1-3) glucan (10 μL of a 10 μg/ml stock), and HBSS (80 μL). Plates were incubated at 37° C. for 1.5 to 2 hours, then supernatants were removed from each well and discarded. Wells were rinsed with HBSS (200 μL) and SOLVABLE™ (100 μL) was added. The plate was incubated at 60° C. for 5 minutes, then supernatants were removed and counted.

Test [2] concerns human leukocyte membranes. In words: ^3H-PGG-Glucan binding to pretreated human leukocyte membranes. The settings on record: for effect of detergent pretreatment of membranes on specific binding (in words): membranes pretreated 5 minutes on ice (CHAPS 0.25%) (FIG. 9). On the procedure: Human leukocyte membranes were incubated in HBSS with or without 0.25% CHAPS for 5 minutes on ice, followed by centrifugation at 180,000×g, 4° C. for 45 minutes. Pellets were used in a binding assay with underivatized, aqueous soluble β(1-3)-glucan or dextran (avg. MW 71,000, Sigma Chemical Co., MO) as indicated at 1 mg/ml final concentration.
Human leukocyte membranes (500 μg protein) were incubated with sodium periodate at concentrations indicated in FIG. 12 (10 and 100 mM) for 30 minutes at room temperature, then centrifuged at 12,000×g for 10 minutes, rinsed and used in a binding assay (non-oil/sucrose; see FIG. 12). Protein-depleted membranes (derived from 1.87 mg human leukocyte membrane protein) were incubated in 0.1 M sodium periodate and treated as described above (FIG. 13).
An alternative procedure to that using the oil/sucrose gradient involved centrifuging 100 μl aliquots of the binding assay in microfuge tubes at 12,000×g, for five minutes, followed by rinsing the resultant pellet with HBSS. Pellets were then dissolved in SOLVABLE™ and radioactively determined as above.

The test system of test [3] is receptor for underivatized, aqueous soluble β(1-3)-glucan on human leukocyte membranes. The test is described as follows: Competition of ^3H-PGG-Glucan binding to human leukocyte membranes (oil/sucrose binding assay). How it is done: Aminated glucan was prepared by reductive amination of curdlan and provided by Dr. Rolph Seljelid (University of Tromsφ, Tromsφ, Norway).
At the end of the incubation, 100 μl aliquots of reaction mixture were layered on top of a double layer density gradient consisting of 100 μl dibutyl phthalate (lower layer) and 100 μl 8% sucrose in PBS (upper layer) in 400 μl centrifuge tubes (Brinkman). The tubes were spun at 15,000×g for 4-5 minutes and the tips containing the membrane pellets were removed, incubated in 300 μl SOLVABLE™ (New England Nuclear, Boston, Mass.) overnight at 50° C. to dissolve the pellet, and then radioactivity determined by liquid scintillation counting. […] Alternatively, membranes were centrifuged directly in their incubation tubes at 15,000×g for 4-5 minutes at 37° C., the pellet washed with HBSS, then pellets solubilized and radioactivity determined by liquid scintillation counting.

Test [4] can be described thus: Competition of ^3H-PGG-Glucan binding to lactosyl ceramide in 96-well plate assay (FIGS. 14, 15). The arrangement: species or system bovine. The settings on record: FIGS. 14 and 15. From the text:
FIG. 14 is a graph of the comparison of underivatized, aqueous soluble β(1-3)-glucan and single helix competition of ^3H-underivatized, aqueous soluble β(1-3)-glucan binding in three assay formats. Underivatized, aqueous soluble β(1-3)-glucan or single helix glucan was used at designated concentrations to compete for ^3H-underivatized, aqueous soluble β(1-3)-glucan binding to lactosyl ceramide (LacCer) in a 96-well plate (triangles), or to lactosyl ceramide in reconstituted membranes (squares), or to human leukocyte membranes (circles). Open symbols represent underivatized, aqueous soluble β(1-3) glucan, and closed symbols represent single helix. Maximum competition was assigned at the highest concentration of underivatized, aqueous soluble β(1-3)-glucan used as competitor in each type of assay.
FIG. 15 is a graphic illustration of data showing that underivatized, aqueous soluble β(1-3) glucan and high molecular weight underivatized, aqueous soluble β(1-3) glucan (Network) compete more effectively for ^3H-underivatized, aqueous soluble β(1-3)-glucan binding to lactosyl ceramide in a 96-well plate assay than do single helix or laminarin. […]
Lactosyl ceramide or the sample to be measured was suspended in ethanol. […] The plate was incubated at 60° C. for 5 minutes, then supernatants were removed and counted.

Where [5] appears, read: addition at 0.1 mg/ml, ^3H-PGG-Glucan binding to human leukocyte membranes.

Take `CCCCCCCCCCCCCCCCCCCCCCCC(=O)NC(CO[C@@H]1O[C@H](CO)[C@@H](O[C@@H]2O[C@H](CO)[C@H](O)[C@H](O)[C@H]2O)[C@H](O)[C@H]1O)C(O)CCCCCCCCCCCCCCC` (mixture of isomers) [N-Lignoceroyl-DL-dihydrolacto-cerebroside]: the “^3H-PGG-Glucan bound (specific binding)” value in test [1] was found to be 0.00. On to `CCCCCCCCCCCCCCCC(=O)NC(CO[C@@H]1O[C@H](CO)[C@@H](O[C@@H]2O[C@H](CO)[C@H](O)[C@H](O)[C@H]2O)[C@H](O)[C@H]1O)C(O)CCCCCCCCCCCCCCC` (mixture of isomers) [N-Palmitoyl-DL-dihydrolacto-cerebroside], for which the “^3H-PGG-Glucan bound (specific binding)” value in test [1] came out at 0.00. For the molecule `CCCCCCCCCCCCCCCCCC(=O)NC(CO[C@@H]1O[C@H](CO)[C@@H](O[C@@H]2O[C@H](CO)[C@H](O)[C@H](O)[C@H]2O)[C@H](O)[C@H]1O)C(O)CCCCCCCCCCCCCCC` (mixture of isomers) [N-Stearoyl-DL-dihydrolacto-cerebroside], the “^3H-PGG-Glucan bound (specific binding)” value in test [1] is given as 0.00. Regarding `C[C@H](CCC(=O)NCCC[N+](C)(C)CCCS(=O)(=O)[O-])[C@H]1CC[C@H]2[C@@H]3[C@H](O)C[C@@H]4C[C@H](O)CC[C@]4(C)[C@H]3C[C@H](O)[C@]12C` [CHAPS], the “effect of detergent pretreatment of membranes on specific binding (in words)” value in test [2] is recorded as “enhancement of specific binding”. For `O=C(O)CN(CCOCCOCCN(CC(=O)O)CC(=O)O)CC(=O)O` [EGTA], the “% Control Binding” value in test [3] (addition at 5 mM) was 87%. Consider `CCCCCCCCCCCCCC=CC(O)C(COC1OC(CO)C(OC2OC(CO)C(O)C(O)C2O)C(O)C1O)NC(=O)CCCCCCCCCCCCCCC` (stereo not drawn) [LacCer (HLM) C16:0], for which the “^3H-PGG-Glucan bound (specific binding)” value in test [1] was found to be 3.31.

Consider `CCCCCCCCCCCCC/C=C/[C@@H](O)[C@H](CO[C@@H]1O[C@H](CO)[C@@H](O[C@@H]2O[C@H](CO)[C@H](O)[C@H](O)[C@H]2O)[C@H](O)[C@H]1O)NC(=O)CCCCCCCCCCCCCCCCC` [LacCer (HLM) C18:0], for which the “^3H-PGG-Glucan bound (specific binding)” value in test [1] worked out at 1.93. In the case of `CCCCCCCCCCCCCC=CC(O)C(COC1OC(CO)C(OC2OC(CO)C(O)C(O)C2O)C(O)C1O)NC(=O)CCCCCCCCCCCCCCCCCCCCC` (stereo not drawn) [LacCer (HLM) C22:0], in test [1], the “^3H-PGG-Glucan bound (specific binding)” value was 3.57. Same read-out and setting: the value for `CCCCCCCCCCCCC/C=C/[C@@H](O)[C@H](CO[C@@H]1O[C@H](CO)[C@@H](O[C@@H]2O[C@H](CO)[C@H](O)[C@H](O)[C@H]2O)[C@H](O)[C@H]1O)NC(=O)CCCCCCCCCCCCCCCCCCCCCCC` [LacCer (HLM) C24:0] was 3.14. Consider `CCCCCCCCCCCCC/C=C/[C@@H](O)[C@@H](N)CO` [Sphingosine], for which, in test [1], the “3H-PGG-Glucan Bound (specific binding)” value was found to be 0.02 ± 0.00 ng/μg sphingolipid.

On to `OC[C@H]1O[C@@H](O[C@@H]2[C@@H](O)[C@H](O[C@@H]3[C@@H](O)[C@H](O[C@@H]4[C@@H](O)[C@H](O[C@@H]5[C@@H](O)[C@H](O[C@@H]6[C@@H](O)[C@H](O[C@@H]7[C@@H](O)[C@H](O)O[C@H](CO)[C@H]7O)O[C@H](CO)[C@H]6O)O[C@H](CO)[C@H]5O)O[C@H](CO)[C@H]4O)O[C@H](CO)[C@H]3O)O[C@H](CO)[C@H]2O)[C@H](O)[C@@H](O)[C@@H]1O` [laminariheptose], for which, in test [3], the “inhibition of radioactively labeled underivatized, aqueous soluble β(1-3)-glucan binding to human leukocyte membranes (in words)” value is on record as “no effect”. `CCCCCCCCO[C@@H]1O[C@H](CO)[C@@H](O)[C@H](O)[C@H]1O` [octylglucoside]: in test [2], the “effect of detergent pretreatment of membranes on specific binding (in words)” value was “enhancement of specific binding”. Consider `[Na+].[O-][I+3]([O-])([O-])[O-]` [sodium periodate], for which, in test [2] (10 and 100 mM, 30 minutes at room temperature (FIGS. 12, 13)), the “effect of sodium periodate treatment of membranes on binding activity (in words)” value is “decreased”.

On to Ceramides, for which the “3H-PGG-Glucan Bound (specific binding)” value in test [1] is given as 0.02 ± 0.01 ng/μg sphingolipid. With Dextran, the “% Control Binding” value in test [3] (addition at 1 mg/ml) came to 88%.

Regarding Globoside, the “3H-PGG-Glucan Bound (specific binding)” value in test [1] worked out at 0.00 ± 0.01 ng/μg sphingolipid. For the molecule Glycogen, the “% Control Binding” value in test [3] (setting [5]) worked out at 134%. Regarding Laminarin, the “inhibition of radioactively labeled underivatized, aqueous soluble β(1-3)-glucan binding to human leukocyte membranes (in words)” value in test [3] was “do not inhibit; also recorded: not inhibited”. Besides, the “% Control Binding” value in test [3] (addition at 1 mg/ml) is 83%. The “competition for ^3H-underivatized, aqueous soluble β(1-3)-glucan binding to LacCer in the 96-well plate assay (in words)” value in test [4] was “does not compete efficiently”. For Lipopolysaccharide, the “% Control Binding” value in test [3] (setting [5]) was 89%.

Consider Mannan, for which the “% Control Binding” value in test [3] (addition at 1 mg/ml) is 88%. As for Sulfatides, in test [1], the “3H-PGG-Glucan Bound (specific binding)” value came out at 0.00 ± 0.01 ng/μg sphingolipid. As to galactosyl ceramides, in test [1], the “specific binding to ^3H-underivatized, aqueous soluble β(1-3)-glucan (in words)” value (from here on “specific binding to ^3H-underivatized”) is “significant specific binding”. In the case of “globotriaosyl ceramide [GlobotriaosylCer]”, in test [1], the “specific binding to ^3H-underivatized” value was “significant specific binding” and the “3H-PGG-Glucan Bound (specific binding)” value is 0.84 ± 0.13 ng/μg sphingolipid. With lactosyl ceramide, in test [1], the “specific binding to ^3H-underivatized” value is “significant specific binding”.

These data come from patent US6630310B1, “Assay for binding between carbohydrate and glycolipid” (Biopolymer Engineering Pharmaceutical, Inc., priority 1996, dated 2003).
